Laboratory results from patent US20050124618A1, “Methods of modulating angiogenesis and cancer cell proliferation” (priority 2003, published 2005).
Entries after “also recorded” stand apart in the source; their conditions may differ.

Assays:
U251 human glioma cells = experiment: DNA fragmentation and TUNEL assays in U251 cells; assay type: cell-based; conditions: HET0016
Description: DNA Fragmentation and TUNEL Assays: HET0016-treated cultures were washed twice with 1×PBS and incubated with lysis buffer [20 mM Tris-HCl, 10 mM EDTA, 0.3% Triton X-100]. Genomic DNA was extracted and separated on a 2% agarose gel. Separated DNA was visualized by staining gels with ethidium bromide (EtBr). […] Coverslips were washed 3× with PBS and air-dried. Samples were then fixed with a freshly prepared fixation solution (4% paraformaldehyde in PBS, pH 7.4) for 1 hr at room temperature, followed by incubation in fresh permeabilization solution (0.1% Triton X-100 in 0.1% sodium citrate) for 2 min on ice. Finally, samples were processed using in situ Cell Death Detection Kit, AP (Roche Diagnostics, Indianapolis, Ind.) according to the manufacturer's recommendations.

[1] = tested on: phospho-tyrosine and phospho-Ser/Thr-Pro proteins; experiment: Western blot of tyrosine and serine/threonine protein phosphorylation in U251 cells; assay type: cell-based, human
Description: They were then pelleted by centrifugation at 1,000 g for 5 min at 4° C. Cells were lysed by adding RIPA buffer [20 mM HEPES (pH 7.4), 100 mM NaCl, 1% Nonidet P-40, 0.1% SDS, 1% deoxycholic acid, 10% glycerol, 1 mM EDTA, 1 mM NaVO3, 50 mM NaF, and Protease Inhibitors Set 1 (Calbiochem, La Jolla, Calif.)]. Plates were then scraped and cells collected in a 1.5-ml centrifuge tube, followed by incubation on ice for 30 min. Homogenates of the cell suspension were centrifuged for 10 min at 14,000 g and 4° C.; the pellets were discarded and protein concentrations in the supernatant determined by bicinchoninic acid (BCA) protein assay.
Typically, 20 μg of protein was separated on a 14% Tris-glycine gel (Invitrogen) and electroblotted on a PVDF membrane (Biotrace, Bothell, Wash.). Membranes were blocked for 1 h at room temperature with blocking buffer [0.2% I-Block reagent (Tropix, Bedford, Mass.), 0.1% Tween-20 in […]] before incubation with primary antibodies in blocking buffer (overnight at 4° C.). […] Both phospho-tyrosine (Y102) and phospho-serine/threonine-Pro MPM2 were detected using a 1:2000 dilution of the corresponding antibodies, whereas phospho-p44/p42MAPK and phospho-SAPK/JNK were detected using 1:1000 antibody dilutions. […]

9L rat gliosarcoma cells = experiment: [3H]thymidine incorporation in 9L cells; assay type: cell-based; conditions: 10 μM HET0016
Description: [^3H]Thymidine Incorporation Studies: Thymidine incorporation studies were performed with cells grown in 35-mm culture dishes. […] Palmitic acid and EtOH served as nonspecific fatty acid and vehicle controls, respectively. At the end of the pulse, the medium was aspirated and the cells rinsed twice with cold 1× phosphate buffered saline (PBS). The rinsed cultures were fixed by exposure to cold 5% trichloracetic acid overnight at 4° C., after which fixed cells were extracted as described previously (Scholler et al., Mol. Pharmacol. 45: 944-954, 1994). A second set of non-fixed dishes was treated with 0.05% trypsin/EDTA to estimate cell numbers. [^3H]thymidine was detected by scintillation counting and expressed as dpm/10^3 cells.

For `CCCCc1ccc(N=CNO)c(C)c1` [HET0016, N-hydroxy-N′-(4-butyl-2 methylphenyl) formamidine], the “induction of apoptosis (DNA fragmentation and TUNEL)” value (U251 human glioma cells) was “does not induce apoptosis”, the “serine/threonine phosphorylation of proteins” value ([1]; 10 μM HET0016) was “no significant changes” and the “tyrosine phosphorylation of proteins” value ([1]; 10 μM HET0016, 24 and 48 hr) was “inhibition which was seen at 24 and 48 hr; also recorded: significant decreases at 24 and 48 hr”. The “reduction of thymidine incorporation in 9L cultures” value (9L rat gliosarcoma cells) was 60%.
